Marks after values point to notes of the source that are not given here.
Experiments:
[1] = tested on: adjuvant-induced arthritis; assay: Rat adjuvant-induced arthritis (AIA) model; format: in vivo; details: for Inhibition in paw edema (%): paw weight day 24; for Body weight change (%): day 24 relative to day 10
Protocol: The rats were then inoculated intradermally (at the base of tail) with 0.5 mg heat-killed M. butyricum (BD Diagnostic Systems) in 100 μl light mineral oil (Sigma-Aldrich, St Louis, MO, USA). […] For each study, two or three rats from the same colony were not induced for arthritis and were used as healthy controls.
Unless noted otherwise, all drug treatments started on day 10 after arthritis induction and lasted for two consecutive weeks with biweekly (BIW, Mondays and Thursdays) or once-weekly (QW, Mondays) dosing regimens.
EC0746 was given subcutaneously (s.c.) in a dosing range of 25 to 1,000 nmol/kg (QW or BIW); MTX was given s.c. or orally at 250 nmol/kg (BIW) or 1,650 nmol/kg (QW); and etanercept (10 mg/kg) was given s.c. once every 3 days for a 12-day span. The QW MTX dosing regimen was to mimic MTX administration in humans, and this particular dose of 1,650 nmol/kg per week (that is, 0.75 mg/kg per week) was reportedly active as an intraperitoneal agent in the AIA model. To distinguish the anti-inflammatory mechanisms of EC0746 and MTX in vivo, a therapeutically irrelevant folate-containing competitor (EC0923, molecular weight 672) was used in 500-fold molar excess to block the activities of EC0746 and MTX at 250 nmol/kg (BIW).
Formalin-fixed hind paws were examined by a board-certified veterinary radiologist who had no knowledge of the study groups. Specific criteria were used to establish a numerical grade of severity for each radiographic change: increased soft tissue volume (0 to 4), narrowing or widening of joint spaces (0 to 5), subchondral erosion (0 to 3), periosteal reaction (0 to 4), osteolysis (0 to 4), subluxation (0 to 3), and degenerative joint changes (0 to 3). Scores are limited to the tarsus, and the maximum possible score per foot was 26 [39]. The histopathological analysis was also performed in a blind fashion by an independent contract laboratory (Bolder BioPATH Inc., Boulder, CO, USA). The arthritic ankles were scored on a scale of 0 to 5 for inflammation, bone resorption, pannus formation, and cartilage damage, with a maximal histology score of 20 per foot.

[2] = Plasma pharmacokinetics after single subcutaneous dose; format: in vivo, rat
Protocol: Female Lewis rats with jugular vein catheters (Harlan Sprague Dawley) were used to assess the plasma pharmacokinetics of EC0746 and unconjugated AMT. The animals were divided into two main groups, one given a single dose of EC0746 s.c. and the second a single dose of AMT s.c., both at 500 nmol/kg. Whole blood samples (300 μl) were collected from three animals per time point at the following time points: 1 minute, 10 minutes, 30 minutes, 1 hour, 2 hours, 3 hours, 4 hours, and 8 hours after injection. The blood samples were placed into anticoagulant tubes containing 1.7 mg/ml K3EDTA and 0.35 mg/ml N-maleoyl-β-alanine (0.35 mg/ml) in a 0.15% acetic acid solution. Plasma samples were obtained by centrifugation for 3 minutes at ~2,000 × g and stored at -80°C. The amounts of EC0746 and AMT in the plasma and the two primary metabolites of EC0746 (AMT and AMT hydrazide) were determined by liquid chromatography/mass spectrometry/mass spectrometry.

RAW264.7 cells = format: cell-based, murine
Protocol: RAW264.7 cells in 96-well plates (3.5 × 10^4 cells/well) were treated with 10-fold serial dilutions of EC0746 (≤1 μM) in FFRPMI medium without and with 100-fold molar excess of FA. After a 2-hour exposure, the drug-containing media were replaced and the cells were allowed to incubate further for 70 hours (referred in the text as a 70-hour chase). In comparison, the cells were also treated continuously with AMT for 72 hours. Four hours prior to the end of incubation, LPS was added to the treated cells at a final concentration of 100 ng/ml. Then 100 μl culture supernatants were collected for TNFα analysis by ELISA. The cell viability was assessed by adding XTT to the remaining media for an additional 4 hours following the manufacturer's instructions. To evaluation of a cytostatic effect, RAW264.7 cells seeded at 1 × 10^6 cells/well in six-well plates were subjected to 2-hour exposure and a 70-hour chase with 0, 0.1, 10, and 1000 nM EC0746 without and with excess FA. At the end of the incubation (no LPS added), the surviving cells (that is, still viable cells) were recovered and redistributed in equal numbers in fresh medium for an additional 72 hours. The cell proliferation was again assessed by the XTT assay. All results were expressed as the percentage absorbance (minus background) relative to the untreated control cells.

[3] = preliminary study, 500 nmol/kg s.c. biweekly, low starting arthritis
[4] = preliminary study, 500 nmol/kg s.c. biweekly, more established disease
[5] = s.c., 25 nmol/kg biweekly from day 10
[6] = s.c., 100 nmol/kg biweekly from day 10
[7] = s.c., 250 nmol/kg biweekly from day 10
[8] = s.c., 250 nmol/kg biweekly plus 500-fold excess EC0923
[9] = s.c., 250 nmol/kg biweekly, alone
[10] = s.c., 500 nmol/kg biweekly from day 10
[11] = s.c., 1,000 nmol/kg once weekly

Nc1nc(N)c2nc(CNc3ccc(C(=O)N[C@@H](CCC(=O)NNC(=O)OCCSSC[C@H](NC(=O)[C@H](CCC(=O)NC[C@H](O)[C@@H](O)[C@H](O)[C@H](O)CO)NC(=O)[C@H](CCC(=O)O)NC(=O)[C@H](CCC(=O)NC[C@H](O)[C@@H](O)[C@H](O)[C@H](O)CO)NC(=O)[C@H](CCC(=O)O)NC(=O)[C@H](CCC(=O)NC[C@H](O)[C@@H](O)[C@H](O)[C@H](O)CO)NC(=O)CC[C@H](NC(=O)c4ccc(NCc5cnc6nc(N)[nH]c(=O)c6n5)cc4)C(=O)O)C(=O)O)C(=O)O)cc3)cnc2n1 [EC0746]
Improvement in paw edema (percentage increase in paw weight) [1, 3]: ~ 10 fold | Improvement in splenomegaly (percentage increase in spleen weight) [1, 3]: threefold | Arthritis score maintained throughout study ([1]; preliminary study, 500 nmol/kg s.c. biweekly, mean starting arthritis score ~0 on day 10, score max 16): ~ 1 | Maximum reduction in arthritic scores ([1]; preliminary study, 500 nmol/kg s.c. biweekly, mean starting arthritis score ~2 (established disease)): ~ 50% | Improvement in paw edema (percentage increase in paw weight) [1, 4]: ~ 2.5 fold | Improvement in splenomegaly (percentage increase in spleen weight) [1, 4]: twofold | Splenomegaly (percentage increase in spleen weight relative to healthy rats) [1, 5]: 73 ± 8^e % | Inhibition in paw edema (%) [1, 5]: 0 ± 25^d % | Body weight change (%) ([1]; s.c., 25 nmol/kg biweekly): -17 ± 1% | Splenomegaly (percentage increase in spleen weight relative to healthy rats) [1, 6]: 52 ± 13^e % | Inhibition in paw edema (%) [1, 6]: 35 ± 11^d % | Body weight change (%) ([1]; s.c., 100 nmol/kg biweekly): -14 ± 1% | Animals with no lesions (histopathology of ankle) ([1]; s.c., 250 nmol/kg biweekly): three out of five | Decrease in summed histology scores ([1]; s.c., 250 nmol/kg biweekly): 94% | Reduction in dorsal to ventral paw thickness ([1]; s.c., 250 nmol/kg biweekly): 94% | Splenomegaly (percentage increase in spleen weight relative to healthy rats) [1, 7]: 25 ± 6^e % | Inhibition in paw edema (%) [1, 7]: 91 ± 4^d % | Decrease in inflammation score (histology) [1, 8]: 24% | Decrease in summed histology scores [1, 8]: ~ 19% | Reduction in dorsal to ventral paw thickness [1, 8]: 22% | Anti-arthritic activity with co-administered EC0923 ([1]; s.c., 250 nmol/kg biweekly plus 500-fold molar excess EC0923 (125 μmol/kg), all clinical parameters): nearly completely blocked | Radiographic analysis of arthritic paws ([1]; s.c., 250 nmol/kg biweekly plus EC0923 125 μmol/kg): significant joint erosions | Anti-arthritic activity (arthritis score, body weight, paw and spleen weights) [1, 9]: highly effective | Radiographic analysis of arthritic paws [1, 9]: minimal radiographic changes | Body weight change (%) ([1]; s.c., 250 nmol/kg biweekly): -0.5 ± 3% | Improvement in splenomegaly ([1]; s.c., 250 nmol/kg per dose biweekly, printed >3-fold to fourfold): > 3 fold | Splenomegaly (percentage increase in spleen weight relative to healthy rats) [1, 10]: 37 ± 7% | Inhibition in paw edema (%) [1, 10]: 91 ± 9% | Body weight change (%) ([1]; s.c., 500 nmol/kg biweekly): 0.4 ± 4% | Loss of original body weight due to arthritis progression [1, 11]: ~ 7% | Splenomegaly (percentage increase in spleen weight relative to healthy rats) [1, 11]: 39 ± 5% | Inhibition in paw edema (%) ([1]; s.c., 1,000 nmol/kg once weekly (days 10 and 17)): 72 ± 12% | Body weight change (%) [1, 11]: -7 ± 3% | Active drug exposure/release (AMT plus AMT hydrazide) detected in plasma, based on AUC ([2]; EC0746 500 nmol/kg s.c., 8-hour collection period): ~ 18% | Area under the curve ([2]; after single s.c. dose of EC0746 500 nmol/kg, 8-hour collection, analyte = label): 32.5 nmol·min/mL | Elimination half-life ([2]; after single s.c. dose of EC0746 500 nmol/kg, analyte = label): ~ 35 minutes | IC50 (RAW264.7 cells; 2-hour pulse, 70-hour chase, read-out: Relative 50% inhibitory concentration, inhibition of cell proliferation (XTT)): ~300 pM | Antiproliferative effect competitive in presence of excess FA (RAW264.7 cells; 100-fold molar excess FA): 100% | Proliferation of surviving cells redispersed into fresh medium (RAW264.7 cells; additional 72-hour incubation after 2-hour pulse plus 70-hour chase): could no longer divide | Maximum growth inhibition (RAW264.7 cells; concentrations ≥1 nM, 2-hour pulse, 70-hour chase): ~ 50%

Reference: publication PMC3132048, “Treatment of experimental adjuvant arthritis with a novel folate receptor-targeted folic acid-aminopterin conjugate” (Arthritis Research & Therapy, 2011)
